{
  "source": "paper PMC5218480",
  "about": "(PLoS ONE, 2017)",
  "tested_on": "MV-4-11 cells",
  "test": "Gene expression microarray analysis (Affymetrix PrimeView) and GSEA",
  "format": "cell-based, human",
  "parameters": "RFU PODN (11730768_x_at) / Fold change /veh PODN (11730768_x_at) / RFU LINC00158 (11744669_a_at) / Fold change /veh LINC00158 (11744669_a_at) / RFU DUSP10 (11751237_a_at) / Fold change /veh DUSP10 (11751237_a_at) / RFU ID3 (11757404_x_at) / Fold change /veh ID3 (11757404_x_at) / RFU PLEKHG5 (11737974_s_at) / Fold change /veh PLEKHG5 (11737974_s_at) / RFU LRRC4B (11730491_at) / Fold change /veh LRRC4B (11730491_at) / RFU GIMAP4 (11747438_a_at) / Fold change /veh GIMAP4 (11747438_a_at) / RFU KRT8 (11758183_x_at) / Fold change /veh KRT8 (11758183_x_at) / RFU CNN1 (11734310_a_at) / Fold change /veh CNN1 (11734310_a_at) / RFU VPS37D (11726825_at) / Fold change /veh VPS37D (11726825_at) / RFU C10orf10 (11716522_x_at) / Fold change /veh C10orf10 (11716522_x_at) / RFU KIR2DL2 /// KIR2DL4 /// KIR2DL5A /// KIR2DL5B /// KIR2DS1 /// KIR2DS2 /// KIR2DS3 /// KIR2DS4 /// KIR3DL3 /// KIR3DL3 /// KIR3DS1 (11738374_at) / Fold change /veh KIR2DL2 /// KIR2DL4 /// KIR2DL5A /// KIR2DL5B /// KIR2DS1 /// KIR2DS2 /// KIR2DS3 /// KIR2DS4 /// KIR3DL3 /// KIR3DL3 /// KIR3DS1 (11738374_at) / RFU C1QL1 (11718748_at) / Fold change /veh C1QL1 (11718748_at) / RFU TMPRSS4 (11747572_a_at) / Fold change /veh TMPRSS4 (11747572_a_at) / RFU HAMP (11756126_x_at) / Fold change /veh HAMP (11756126_x_at) / RFU RNFT2 (11725882_a_at) / Fold change /veh RNFT2 (11725882_a_at) / RFU NR4A2 (11747474_a_at) / Fold change /veh NR4A2 (11747474_a_at) / RFU ABCC12 (11746883_a_at) / Fold change /veh ABCC12 (11746883_a_at) / RFU TMEM136 (11760407_x_at) / Fold change /veh TMEM136 (11760407_x_at) / RFU CLDN22 /// WWC2 (11732394_at) / Fold change /veh CLDN22 /// WWC2 (11732394_at) / RFU HLA-DPB1 (11760878_x_at) / Fold change /veh HLA-DPB1 (11760878_x_at) / RFU SPINT1 (11716480_a_at) / Fold change /veh SPINT1 (11716480_a_at) / RFU GAP43 (11754022_s_at) / Fold change /veh GAP43 (11754022_s_at) / RFU A4GNT (11735810_at) / Fold change /veh A4GNT (11735810_at) / RFU PRB3 (11715151_x_at) / Fold change /veh PRB3 (11715151_x_at) / RFU TUBB4B (11761932_at) / Fold change /veh TUBB4B (11761932_at) / RFU CAPN14 (11732068_a_at) / Fold change /veh CAPN14 (11732068_a_at) / RFU TMCC2 (11721928_a_at) / Fold change /veh TMCC2 (11721928_a_at) / RFU IRGQ (11745062_a_at) / Fold change /veh IRGQ (11745062_a_at) / RFU FAM174B (11720279_a_at) / Fold change /veh FAM174B (11720279_a_at) / RFU TMPRSS4 (11748680_a_at) / Fold change /veh TMPRSS4 (11748680_a_at) / RFU FAM212B (11763350_a_at) / Fold change /veh FAM212B (11763350_a_at) / RFU PLEKHG5 (11743358_a_at) / Fold change /veh PLEKHG5 (11743358_a_at) / RFU ZSCAN30 (11745921_a_at) / Fold change /veh ZSCAN30 (11745921_a_at) / RFU CMKLR1 (11741424_a_at) / Fold change /veh CMKLR1 (11741424_a_at) / RFU LOC101060620 /// MAPK8IP1 (11723275_at) / Fold change /veh LOC101060620 /// MAPK8IP1 (11723275_at) / RFU SPTSSB (11747773_x_at) / Fold change /veh SPTSSB (11747773_x_at) / RFU PRSS12 (11739890_at) / Fold change /veh PRSS12 (11739890_at) / RFU BIN1 (11741810_x_at) / Fold change /veh BIN1 (11741810_x_at) / RFU WNT11 (11732464_a_at) / Fold change /veh WNT11 (11732464_a_at) / RFU C10orf10 (11716521_a_at) / Fold change /veh C10orf10 (11716521_a_at) / RFU C5orf56 (11738089_at) / Fold change /veh C5orf56 (11738089_at) / RFU CYB561 (11721691_x_at) / Fold change /veh CYB561 (11721691_x_at) / RFU ANKRD19P (11752326_a_at) / Fold change /veh ANKRD19P (11752326_a_at) / RFU OR2T12 /// OR2T33 /// OR2T8 (11738714_s_at) / Fold change /veh OR2T12 /// OR2T33 /// OR2T8 (11738714_s_at) / RFU VCAN (11748164_a_at) / Fold change /veh VCAN (11748164_a_at) / RFU JSRP1 (11732532_at) / Fold change /veh JSRP1 (11732532_at) / RFU KRTAP10-11 (11738290_x_at) / Fold change /veh KRTAP10-11 (11738290_x_at) / RFU MYO3A (11730013_a_at) / Fold change /veh MYO3A (11730013_a_at) / RFU EBF3 (11725865_a_at) / Fold change /veh EBF3 (11725865_a_at) / RFU CAMK2N1 (11719241_x_at) / Fold change /veh CAMK2N1 (11719241_x_at) / RFU C5orf56 (11738088_a_at) / Fold change /veh C5orf56 (11738088_a_at) / RFU OLFML3 (11715873_a_at) / Fold change /veh OLFML3 (11715873_a_at) / RFU LOC100653217 /// NTM (11731650_a_at) / Fold change /veh LOC100653217 /// NTM (11731650_a_at) / RFU MAPK11 (11762145_a_at) / Fold change /veh MAPK11 (11762145_a_at) / RFU FIZ1 (11724087_x_at) / Fold change /veh FIZ1 (11724087_x_at) / RFU OASL (11726364_x_at) / Fold change /veh OASL (11726364_x_at) / RFU SOX15 (11748057_x_at) / Fold change /veh SOX15 (11748057_x_at) / RFU CD79A (11719716_a_at) / Fold change /veh CD79A (11719716_a_at) / RFU HIST1H1D (11736915_at) / Fold change /veh HIST1H1D (11736915_at) / RFU CASKIN2 (11723855_a_at) / Fold change /veh CASKIN2 (11723855_a_at) / RFU LOC730098 (11760151_x_at) / Fold change /veh LOC730098 (11760151_x_at) / RFU OR4N2 (11742367_at) / Fold change /veh OR4N2 (11742367_at) / RFU PRRT2 (11749266_a_at) / Fold change /veh PRRT2 (11749266_a_at) / RFU SNX32 (11753110_a_at) / Fold change /veh SNX32 (11753110_a_at) / RFU CDHR5 (11726645_a_at) / Fold change /veh CDHR5 (11726645_a_at) / RFU RCAN1 (11760418_a_at) / Fold change /veh RCAN1 (11760418_a_at) / RFU FAM167A (11723789_a_at) / Fold change /veh FAM167A (11723789_a_at) / RFU FAM26E (11764081_at) / Fold change /veh FAM26E (11764081_at) / RFU ISYNA1 (11749810_s_at) / Fold change /veh ISYNA1 (11749810_s_at) / RFU ACY1 (11761880_at) / Fold change /veh ACY1 (11761880_at) / RFU 11764098_at / Fold change /veh 11764098_at / RFU SAMD14 (11745864_x_at) / Fold change /veh SAMD14 (11745864_x_at) / RFU NPB (11741838_a_at) / Fold change /veh NPB (11741838_a_at) / RFU TMPRSS6 (11731388_a_at) / Fold change /veh TMPRSS6 (11731388_a_at) / RFU KRTAP10-2 (11738614_at) / Fold change /veh KRTAP10-2 (11738614_at) / RFU ARHGAP8 /// PRR5-ARHGAP8 (11727945_x_at) / Fold change /veh ARHGAP8 /// PRR5-ARHGAP8 (11727945_x_at) / RFU KRTAP5-7 /// NADSYN1 (11734609_at) / Fold change /veh KRTAP5-7 /// NADSYN1 (11734609_at) / RFU RASL12 (11751679_a_at) / Fold change /veh RASL12 (11751679_a_at) / RFU CDKN2B (11736163_a_at) / Fold change /veh CDKN2B (11736163_a_at) / RFU PRF1 (11729649_at) / Fold change /veh PRF1 (11729649_at) / RFU, ZNF638 /// ZNF638-IT1 / Fold change vs veh, ZNF638 /// ZNF638-IT1 / RFU, PANK3 / Fold change vs veh, PANK3 / RFU, SH3YL1 / Fold change vs veh, SH3YL1 / RFU, ZEB2 / Fold change vs veh, ZEB2 / RFU, NRIP1 / Fold change vs veh, NRIP1 / RFU, PTTG1IP / Fold change vs veh, PTTG1IP / RFU, CAPN2 / Fold change vs veh, CAPN2 / RFU, MED14 / Fold change vs veh, MED14 / RFU, SNORA58 / Fold change vs veh, SNORA58 / RFU, C1orf63 / Fold change vs veh, C1orf63 / RFU, LRRFIP1 / Fold change vs veh, LRRFIP1 / RFU, NDUFAF7 / Fold change vs veh, NDUFAF7 / RFU, SLC12A2 / Fold change vs veh, SLC12A2 / RFU, IBTK / Fold change vs veh, IBTK / RFU, ESF1 / Fold change vs veh, ESF1 / Fold change vs veh, TMEM50B / RFU, TAOK1 / Fold change vs veh, TAOK1 / RFU, ACBD3 / Fold change vs veh, ACBD3 / RFU, TMA16 / Fold change vs veh, TMA16 / RFU, RWDD3 / Fold change vs veh, RWDD3 / RFU, BCAT1 / Fold change vs veh, BCAT1 / RFU, EDEM3 / Fold change vs veh, EDEM3 / RFU, TMEM33 / Fold change vs veh, TMEM33 / RFU, WDR75 / Fold change vs veh, WDR75 / RFU, AHCTF1 / Fold change vs veh, AHCTF1 / RFU, TFRC / Fold change vs veh, TFRC / RFU, ZDHHC17 / Fold change vs veh, ZDHHC17 / RFU, NOM1 / Fold change vs veh, NOM1 / RFU, ARL8B / Fold change vs veh, ARL8B / RFU, ZBTB11 / Fold change vs veh, ZBTB11 / RFU, TAMM41 / Fold change vs veh, TAMM41 / RFU, KIAA1704 /// LOC100996395 / Fold change vs veh, KIAA1704 /// LOC100996395 / RFU, ING1 / Fold change vs veh, ING1 / RFU, TRMT61B / Fold change vs veh, TRMT61B / RFU, FUBP3 / Fold change vs veh, FUBP3 / RFU, TP53 / Fold change vs veh, TP53 / RFU, TNKS2 / Fold change vs veh, TNKS2 / RFU, ZFP14 / Fold change vs veh, ZFP14 / RFU, ACTR2 / Fold change vs veh, ACTR2 / RFU, PPP3R1 / Fold change vs veh, PPP3R1 / RFU, PIK3R1 / Fold change vs veh, PIK3R1 / RFU, HNRNPA1 / Fold change vs veh, HNRNPA1 / RFU, RNF170 / Fold change vs veh, RNF170 / RFU, ZNF28 / Fold change vs veh, ZNF28 / RFU, RNGTT / Fold change vs veh, RNGTT / RFU, OGT / Fold change vs veh, OGT / RFU, BRD1 / Fold change vs veh, BRD1 / RFU, MARS / Fold change vs veh, MARS / RFU, ZNF655 / Fold change vs veh, ZNF655 / RFU, FAHD1 / Fold change vs veh, FAHD1 / RFU, BDP1 / Fold change vs veh, BDP1 / RFU, LRRCC1 / Fold change vs veh, LRRCC1 / RFU, ARID1A / Fold change vs veh, ARID1A / RFU, ZNF146 / Fold change vs veh, ZNF146 / RFU, ZNF330 / Fold change vs veh, ZNF330 / RFU, GPN3 / Fold change vs veh, GPN3 / RFU, C9orf123 / Fold change vs veh, C9orf123 / RFU, N4BP2L2 / Fold change vs veh, N4BP2L2 / RFU, ARFIP1 / Fold change vs veh, ARFIP1 / RFU, FAM179B / Fold change vs veh, FAM179B / RFU, BCL10 / Fold change vs veh, BCL10 / RFU, UHRF1BP1L / Fold change vs veh, UHRF1BP1L / RFU, BET1 / Fold change vs veh, BET1 / RFU, CNOT2 / Fold change vs veh, CNOT2 / RFU, ZNF268 / Fold change vs veh, ZNF268 / Fold change vs veh, ZNF507 / RFU, DGCR2 / Fold change vs veh, DGCR2 / RFU, WDSUB1 / Fold change vs veh, WDSUB1 / Fold change vs veh, HSP90B1 /// MIR3652 / RFU, ADSS / Fold change vs veh, ADSS / RFU, GK / Fold change vs veh, GK / RFU, ZNF148 / Fold change vs veh, ZNF148 / RFU, TAF9 / Fold change vs veh, TAF9 / RFU, SLC1A5 / Fold change vs veh, SLC1A5 / RFU, SLMO2 / Fold change vs veh, SLMO2 / RFU, ABCC4 / Fold change vs veh, ABCC4 / RFU, LOC101060439 /// RAP1B / Fold change vs veh, LOC101060439 /// RAP1B / RFU, RFX7 / Fold change vs veh, RFX7 / RFU, GTPBP10 / Fold change vs veh, GTPBP10 / RFU, CNEP1R1 / Fold change vs veh, CNEP1R1 / RFU, BIVM-ERCC5 /// ERCC5 / Fold change vs veh, BIVM-ERCC5 /// ERCC5 / RFU, ILF3 / Fold change vs veh, ILF3 / RFU 11762660_at / Fold change /veh 11762660_at / RFU VCAN (11757783_s_at) / Fold change /veh VCAN (11757783_s_at) / RFU DDX43 (11728927_at) / Fold change /veh DDX43 (11728927_at) / RFU KRT8 (11758188_x_at) / Fold change /veh KRT8 (11758188_x_at) / RFU NKD1 (11759106_at) / Fold change /veh NKD1 (11759106_at) / RFU SRD5A1 (11742802_a_at) / Fold change /veh SRD5A1 (11742802_a_at) / RFU TPSAB1 /// TPSB2 (11721975_s_at) / Fold change /veh TPSAB1 /// TPSB2 (11721975_s_at) / RFU GSTM3 (11746129_a_at) / Fold change /veh GSTM3 (11746129_a_at) / RFU IL23R (11737362_x_at) / Fold change /veh IL23R (11737362_x_at) / RFU TMEM51 (11727254_a_at) / Fold change /veh TMEM51 (11727254_a_at) / RFU PIWIL2 (11732686_x_at) / Fold change /veh PIWIL2 (11732686_x_at) / RFU ORM1 (11744905_x_at) / Fold change /veh ORM1 (11744905_x_at) / RFU CCDC152 (11743942_at) / Fold change /veh CCDC152 (11743942_at) / RFU ECM1 (11717891_a_at) / Fold change /veh ECM1 (11717891_a_at) / RFU IL23R (11748794_a_at) / Fold change /veh IL23R (11748794_a_at) / RFU TNFAIP8L3 (11732012_x_at) / Fold change /veh TNFAIP8L3 (11732012_x_at) / RFU MBOAT4 (11741988_at) / Fold change /veh MBOAT4 (11741988_at) / RFU 11764193_at / Fold change /veh 11764193_at / RFU TMEM53 (11763286_at) / Fold change /veh TMEM53 (11763286_at) / RFU MAGEB2 (11727129_at) / Fold change /veh MAGEB2 (11727129_at) / RFU TMEM200A (11744735_a_at) / Fold change /veh TMEM200A (11744735_a_at) / RFU CCDC152 (11751479_a_at) / Fold change /veh CCDC152 (11751479_a_at) / RFU FAM211A (11726209_a_at) / Fold change /veh FAM211A (11726209_a_at) / RFU RGS16 (11746705_a_at) / Fold change /veh RGS16 (11746705_a_at) / RFU VCAN (11755009_s_at) / Fold change /veh VCAN (11755009_s_at) / RFU RHOB (11743442_s_at) / Fold change /veh RHOB (11743442_s_at) / RFU RGS16 (11720943_a_at) / Fold change /veh RGS16 (11720943_a_at) / RFU RGS16 (11720944_at) / Fold change /veh RGS16 (11720944_at) / RFU, VPS4B / Fold change vs veh, VPS4B / RFU, CREB1 / Fold change vs veh, CREB1 / RFU, DNAJC13 / Fold change vs veh, DNAJC13 / RFU, GNAQ / Fold change vs veh, GNAQ / RFU, CDK5R1 / Fold change vs veh, CDK5R1 / RFU, ZRANB3 / Fold change vs veh, ZRANB3 / RFU, CUL4A / Fold change vs veh, CUL4A / RFU, CCNY / Fold change vs veh, CCNY / RFU, UFL1 / Fold change vs veh, UFL1 / RFU, COG3 / Fold change vs veh, COG3 / RFU, DIAPH2 / Fold change vs veh, DIAPH2 / RFU, SKA2 / Fold change vs veh, SKA2 / RFU, AFF3 / Fold change vs veh, AFF3 / RFU, LMF1 / Fold change vs veh, LMF1 / RFU, IPO11 / Fold change vs veh, IPO11 / RFU, DFFB / Fold change vs veh, DFFB / RFU, FOXP1 / Fold change vs veh, FOXP1 / RFU, CARD8 / Fold change vs veh, CARD8 / RFU, STRN3 / Fold change vs veh, STRN3 / RFU, ADK / Fold change vs veh, ADK / RFU, RASSF2 / Fold change vs veh, RASSF2 / RFU, WIPF1 / Fold change vs veh, WIPF1 / RFU, LARP1B / Fold change vs veh, LARP1B / RFU, RASA1 / Fold change vs veh, RASA1 / RFU, RB1 / Fold change vs veh, RB1 / RFU, PPFIA1 / Fold change vs veh, PPFIA1 / RFU, MAT2A / Fold change vs veh, MAT2A / RFU, CCT5 / Fold change vs veh, CCT5 / RFU, WDR92 / Fold change vs veh, WDR92 / RFU, CUX1 / Fold change vs veh, CUX1 / RFU, TTC7A / Fold change vs veh, TTC7A / RFU, TMEM135 / Fold change vs veh, TMEM135 / RFU, DEPTOR / Fold change vs veh, DEPTOR / RFU, CPM / Fold change vs veh, CPM / RFU, DNAJB6 / Fold change vs veh, DNAJB6 / RFU, CACNA2D3 / Fold change vs veh, CACNA2D3 / RFU, DTX4 / Fold change vs veh, DTX4 / RFU, TFCP2 / Fold change vs veh, TFCP2 / RFU, GMCL1 /// GMCL1P1 / Fold change vs veh, GMCL1 /// GMCL1P1 / RFU, AEBP2 / Fold change vs veh, AEBP2 / RFU, SNHG1 /// SNORD22 /// SNORD25 /// SNORD26 /// SNORD27 /// SNORD28 /// SNORD29 /// SNORD31 / Fold change vs veh, SNHG1 /// SNORD22 /// SNORD25 /// SNORD26 /// SNORD27 /// SNORD28 /// SNORD29 /// SNORD31 / Fold change (Aza/veh), C12orf56 (ProbeSet 11735607_a_at) / Fold change (ACY-1035/veh), C12orf56 (ProbeSet 11735607_a_at) / Fold change (Aza/veh), FGFR1OP (ProbeSet 11751329_s_at) / Fold change (ACY-1035/veh), FGFR1OP (ProbeSet 11751329_s_at) / Fold change (Aza/veh), VPS36 (ProbeSet 11739960_a_at) / Fold change (ACY-1035/veh), VPS36 (ProbeSet 11739960_a_at) / RFU SYPL1 (11715823_x_at) / Fold change /veh SYPL1 (11715823_x_at) / RFU IGFBP7 (11715501_s_at) / Fold change /veh IGFBP7 (11715501_s_at) / RFU REEP3 (11722064_at) / Fold change /veh REEP3 (11722064_at) / RFU IGLL1 (11728026_x_at) / Fold change /veh IGLL1 (11728026_x_at): dose or concentration left out as unconfirmed",
  "details": "gene VPS36; Azacitidine vs DMSO; LIST F",
  "data": [
    {"smiles": "Nc1ncn([C@@H]2O[C@H](CO)[C@@H](O)[C@H]2O)c(=O)n1", "note": "[azacitidine]", "values": [
      {"measurement": "Fold change (Aza/veh), VPS36 (ProbeSet 11739960_a_at)", "result": 1.14}
    ]}
  ]
}
